What was measured:
Type in all cases: biochemical
EGFR L858R/T790M mutant = EGFR L858R/T790M mutant (Homo sapiens (Human), UniProt P00533, L858R/T790M); experiment: HotSpot radiometric kinase assay, EGFR L858R/T790M mutant; settings: 10 μM ATP
Protocol: (§1) Biochemical Assays for Inhibition of Wild-Type and Mutant EGFRs
(§2) Briefly, specific kinase/substrate pairs along with required cofactors were prepared in reaction buffer; 20 mM Hepes pH 7.5, 10 mM […], 1 mM EGTA, 0.02% Brij35, 0.02 mg/ml BSA, 0.1 mM Na3VO4, 2 mM DTT, 1% DMSO. Compounds were delivered into the reaction, followed […] later by addition of a mixture of ATP (Sigma, St. Louis MO) and ^33P ATP (Perkin Elmer, Waltham MA) to a final concentration of 10 μM. Reactions were carried out at room temperature for 120 min, followed by spotting of the reactions onto P81 ion exchange filter paper (Whatman Inc., Piscataway, NJ). Unbound phosphate was removed by extensive washing of filters in 0.75% phosphoric acid. […] IC50 values and curve fits were obtained using Prism (GraphPad Software).

EGFR L858R mutant = EGFR L858R mutant (Homo sapiens (Human), UniProt P00533, L858R); experiment: HotSpot radiometric kinase assay, EGFR L858R mutant; settings: 10 μM ATP
Sequence of EGFR L858R mutant (P00533 25-1210 L858R): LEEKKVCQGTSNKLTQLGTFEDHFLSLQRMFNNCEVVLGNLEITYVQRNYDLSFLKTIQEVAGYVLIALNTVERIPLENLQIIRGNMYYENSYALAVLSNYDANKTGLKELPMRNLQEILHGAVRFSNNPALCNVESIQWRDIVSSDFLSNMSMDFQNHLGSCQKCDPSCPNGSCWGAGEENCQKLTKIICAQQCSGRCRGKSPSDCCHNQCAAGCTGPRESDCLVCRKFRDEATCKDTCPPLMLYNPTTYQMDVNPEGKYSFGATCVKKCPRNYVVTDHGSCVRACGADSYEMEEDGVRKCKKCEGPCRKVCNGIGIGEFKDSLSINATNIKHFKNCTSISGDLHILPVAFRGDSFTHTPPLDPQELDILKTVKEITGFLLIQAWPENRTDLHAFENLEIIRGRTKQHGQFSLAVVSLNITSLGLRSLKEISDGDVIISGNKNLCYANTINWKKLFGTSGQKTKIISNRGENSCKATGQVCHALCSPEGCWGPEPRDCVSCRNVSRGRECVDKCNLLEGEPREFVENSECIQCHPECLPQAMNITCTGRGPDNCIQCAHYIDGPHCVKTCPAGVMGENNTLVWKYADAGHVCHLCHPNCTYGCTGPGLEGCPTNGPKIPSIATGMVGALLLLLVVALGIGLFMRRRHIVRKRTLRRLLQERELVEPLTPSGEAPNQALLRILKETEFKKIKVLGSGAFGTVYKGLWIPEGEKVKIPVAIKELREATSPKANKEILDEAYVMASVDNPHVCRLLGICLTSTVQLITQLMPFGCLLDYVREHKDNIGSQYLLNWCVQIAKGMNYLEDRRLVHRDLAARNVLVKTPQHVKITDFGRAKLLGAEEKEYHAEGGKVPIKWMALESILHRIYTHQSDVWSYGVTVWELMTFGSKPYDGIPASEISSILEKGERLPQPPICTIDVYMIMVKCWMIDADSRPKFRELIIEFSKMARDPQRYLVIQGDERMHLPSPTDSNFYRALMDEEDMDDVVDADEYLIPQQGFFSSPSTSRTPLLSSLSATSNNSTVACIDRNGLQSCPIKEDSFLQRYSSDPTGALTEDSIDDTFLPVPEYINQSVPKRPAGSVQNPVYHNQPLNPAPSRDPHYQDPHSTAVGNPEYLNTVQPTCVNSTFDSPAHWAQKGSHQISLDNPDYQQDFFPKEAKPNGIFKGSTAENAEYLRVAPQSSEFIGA
Protocol: as §1, §2

EGFR (D770_N771insNPG) = EGFR (D770_N771insNPG) (Homo sapiens (Human), UniProt P00533, INS770NPG); experiment: HotSpot radiometric kinase assay, EGFR (D770_N771insNPG); settings: 10 μM ATP, read-out: EGFR (Δ770_N771insNPG) IC50
Protocol: as §1, §2

[1] = molecular target: EGFR L858R/T790M/C797S mutant (Homo sapiens (Human), UniProt P00533, C797S/L858R/T790M); experiment: HotSpot radiometric kinase assay, EGFR L858R/T790M/C797S mutant; settings: 10 μM ATP
Sequence of EGFR L858R/T790M/C797S mutant (P00533 25-1210 T790M/C797S/L858R): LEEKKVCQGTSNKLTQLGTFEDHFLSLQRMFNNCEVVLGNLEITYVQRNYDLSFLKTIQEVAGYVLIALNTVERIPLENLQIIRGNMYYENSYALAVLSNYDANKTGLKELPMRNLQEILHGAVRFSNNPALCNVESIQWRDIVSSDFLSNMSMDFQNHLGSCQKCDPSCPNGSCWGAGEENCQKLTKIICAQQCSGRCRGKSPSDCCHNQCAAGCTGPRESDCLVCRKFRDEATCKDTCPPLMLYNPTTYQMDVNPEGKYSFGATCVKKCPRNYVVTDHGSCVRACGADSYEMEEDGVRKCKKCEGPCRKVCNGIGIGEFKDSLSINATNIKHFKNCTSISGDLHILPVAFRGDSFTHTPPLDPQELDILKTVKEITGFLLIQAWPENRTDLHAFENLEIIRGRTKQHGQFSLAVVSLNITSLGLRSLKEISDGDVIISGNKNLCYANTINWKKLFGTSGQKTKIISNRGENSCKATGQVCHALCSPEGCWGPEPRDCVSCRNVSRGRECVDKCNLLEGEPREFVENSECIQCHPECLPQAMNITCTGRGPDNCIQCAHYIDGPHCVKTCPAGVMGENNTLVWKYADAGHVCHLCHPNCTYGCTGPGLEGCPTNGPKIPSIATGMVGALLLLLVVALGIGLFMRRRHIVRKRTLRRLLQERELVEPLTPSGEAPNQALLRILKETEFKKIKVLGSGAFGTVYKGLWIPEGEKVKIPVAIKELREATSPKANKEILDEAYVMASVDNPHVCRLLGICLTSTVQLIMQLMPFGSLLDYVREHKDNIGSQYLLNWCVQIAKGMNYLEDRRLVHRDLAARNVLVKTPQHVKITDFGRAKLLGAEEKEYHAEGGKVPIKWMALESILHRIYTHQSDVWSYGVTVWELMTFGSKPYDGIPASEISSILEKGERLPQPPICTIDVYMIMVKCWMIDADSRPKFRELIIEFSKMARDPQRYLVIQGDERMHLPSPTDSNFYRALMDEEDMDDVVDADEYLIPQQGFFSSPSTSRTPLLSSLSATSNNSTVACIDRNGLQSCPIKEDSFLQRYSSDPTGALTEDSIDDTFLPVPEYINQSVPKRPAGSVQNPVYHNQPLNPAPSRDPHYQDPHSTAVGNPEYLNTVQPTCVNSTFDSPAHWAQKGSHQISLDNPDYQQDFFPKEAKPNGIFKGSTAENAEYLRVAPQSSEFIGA
Protocol: as §1, §2

EGFR WT = EGFR WT (Homo sapiens (Human), UniProt P00533); experiment: HotSpot radiometric kinase assay (Reaction Biology), EGFR WT; settings: 10 μM ATP
Sequence of EGFR WT (P00533 25-1210): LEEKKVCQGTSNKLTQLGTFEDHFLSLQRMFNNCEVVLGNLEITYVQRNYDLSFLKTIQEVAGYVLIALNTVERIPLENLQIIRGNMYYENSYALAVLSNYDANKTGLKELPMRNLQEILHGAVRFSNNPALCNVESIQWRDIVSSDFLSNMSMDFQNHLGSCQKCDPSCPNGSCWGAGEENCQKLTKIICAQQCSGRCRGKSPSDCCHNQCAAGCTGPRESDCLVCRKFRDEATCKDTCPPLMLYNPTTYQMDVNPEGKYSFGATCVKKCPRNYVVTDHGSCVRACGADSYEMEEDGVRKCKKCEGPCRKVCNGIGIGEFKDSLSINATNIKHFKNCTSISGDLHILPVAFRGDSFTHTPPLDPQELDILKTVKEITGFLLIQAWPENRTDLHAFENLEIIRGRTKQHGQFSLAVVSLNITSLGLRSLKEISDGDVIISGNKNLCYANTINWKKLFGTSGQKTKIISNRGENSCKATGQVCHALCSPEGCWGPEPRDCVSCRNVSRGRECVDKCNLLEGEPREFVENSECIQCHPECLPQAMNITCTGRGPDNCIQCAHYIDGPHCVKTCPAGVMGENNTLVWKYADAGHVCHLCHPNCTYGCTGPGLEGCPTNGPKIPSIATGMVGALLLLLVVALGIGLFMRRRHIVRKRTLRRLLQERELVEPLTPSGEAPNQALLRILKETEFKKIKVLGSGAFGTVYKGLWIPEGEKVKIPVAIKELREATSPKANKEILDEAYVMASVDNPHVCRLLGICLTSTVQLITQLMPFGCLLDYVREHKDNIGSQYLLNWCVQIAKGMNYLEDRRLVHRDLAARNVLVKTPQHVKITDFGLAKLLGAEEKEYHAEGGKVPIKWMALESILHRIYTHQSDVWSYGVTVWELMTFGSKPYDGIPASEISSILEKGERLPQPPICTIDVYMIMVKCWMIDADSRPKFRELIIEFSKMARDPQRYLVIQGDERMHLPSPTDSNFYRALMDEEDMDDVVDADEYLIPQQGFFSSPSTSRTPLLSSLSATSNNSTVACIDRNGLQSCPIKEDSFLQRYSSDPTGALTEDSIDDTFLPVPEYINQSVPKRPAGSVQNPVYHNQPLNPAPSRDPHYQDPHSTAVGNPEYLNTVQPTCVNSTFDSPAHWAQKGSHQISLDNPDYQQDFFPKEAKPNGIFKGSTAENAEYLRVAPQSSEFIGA
Protocol: as §1, §2

EGFR Δ746-750 mutant = EGFR Δ746-750 mutant (Homo sapiens (Human), UniProt P00533, DEL746-750); experiment: HotSpot radiometric kinase assay, EGFR Δ746-750 mutant; settings: 10 μM ATP
Sequence of EGFR Δ746-750 mutant (P00533 other isoform, or with tags, fused parts or gaps del 1-668/del 746-750 limits assumed): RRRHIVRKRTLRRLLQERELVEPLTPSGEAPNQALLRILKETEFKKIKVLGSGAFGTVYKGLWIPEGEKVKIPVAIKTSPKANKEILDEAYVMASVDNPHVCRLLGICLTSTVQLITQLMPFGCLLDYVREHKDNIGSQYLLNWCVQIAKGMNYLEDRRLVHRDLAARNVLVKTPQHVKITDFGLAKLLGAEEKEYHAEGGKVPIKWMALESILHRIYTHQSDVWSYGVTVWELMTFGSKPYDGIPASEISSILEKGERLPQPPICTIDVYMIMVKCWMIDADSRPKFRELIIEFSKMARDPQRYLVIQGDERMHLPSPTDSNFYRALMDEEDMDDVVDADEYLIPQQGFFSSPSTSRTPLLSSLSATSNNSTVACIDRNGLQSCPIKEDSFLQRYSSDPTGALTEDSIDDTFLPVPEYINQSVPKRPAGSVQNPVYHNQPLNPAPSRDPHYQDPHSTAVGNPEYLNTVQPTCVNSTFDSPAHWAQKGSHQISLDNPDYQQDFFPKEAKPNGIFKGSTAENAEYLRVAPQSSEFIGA
Protocol: as §1, §2

[2] = molecular target: EGFR Δ746-750/C797S mutant (Homo sapiens (Human), UniProt P00533, C797S/DEL746-750); experiment: HotSpot radiometric kinase assay, EGFR Δ746-750/C797S mutant; settings: 10 μM ATP
Sequence of EGFR Δ746-750/C797S mutant (P00533 other isoform, or with tags, fused parts or gaps C797S/del 1-668/del 746-750 limits assumed): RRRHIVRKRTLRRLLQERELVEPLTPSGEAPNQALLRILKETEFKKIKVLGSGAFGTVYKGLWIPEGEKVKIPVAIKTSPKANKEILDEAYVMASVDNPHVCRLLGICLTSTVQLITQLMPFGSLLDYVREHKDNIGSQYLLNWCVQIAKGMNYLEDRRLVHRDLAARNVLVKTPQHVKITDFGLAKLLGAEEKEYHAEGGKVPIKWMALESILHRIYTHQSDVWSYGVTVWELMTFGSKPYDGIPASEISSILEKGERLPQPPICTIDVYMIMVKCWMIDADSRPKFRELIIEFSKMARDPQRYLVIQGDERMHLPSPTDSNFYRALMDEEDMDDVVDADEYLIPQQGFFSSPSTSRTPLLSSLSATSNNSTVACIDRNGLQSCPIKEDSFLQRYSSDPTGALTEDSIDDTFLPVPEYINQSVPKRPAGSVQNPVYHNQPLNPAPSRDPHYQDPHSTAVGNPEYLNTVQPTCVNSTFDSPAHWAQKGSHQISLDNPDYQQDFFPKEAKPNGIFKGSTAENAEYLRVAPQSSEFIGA
Protocol: as §1, §2

| Compound | IC50 (EGFR L858R/T790M mutant) [nM] | IC50 (EGFR L858R mutant) [nM] | IC50 (EGFR (D770_N771insNPG)) [nM] | IC50 [1] [nM] | IC50 (EGFR WT) [nM] | IC50 (EGFR Δ746-750 mutant) [nM] | IC50 [2] [nM] |
| --- | --- | --- | --- | --- | --- | --- | --- |
| Cc1nn([C@@H]2COC[C@H]2O)c2c1/C=C/c1n[nH]c3ccc(cc13)-c1cnn(C)c1OCCCO2 (single isomer, unassigned) [Example 77] | 427 | 2080 | 1880 | 453 | > 1000 | 749 | 803 |
| Cc1nn(C)c2c1/C=C/c1n[nH]c3ccc(cc13)-c1cnn(C)c1CN(C)C[C@@H](C)O2 (single isomer, unassigned) [Example 96] | 5.29 | 74.9 | 196 | 9.45 | 242 | 285 | 94.1 |
| CN1CCN(c2ccc3c(c2)OC2CCN(CCOc4c(cnn4C)-c4ccc5[nH]nc(c5c4)/C=C/3)C2=O)CC1 (stereo in doubt) [Example 131] | 0.57 | 4.02 | 6.79 | 1.9 | 17.7 | 1.65 | 4.09 |
| Cn1ncc2c1COCCOc1ccccc1/C=C/c1n[nH]c3ccc-2cc13 [Ex. 1, (11E)-1-methyl-1,18,19,21-tetrahydro-8H-10,7,4-(ethan[1]yl[1,2]diylidene)pyrazolo[3,4-f][1,4,12,13]benzodioxadiazacyclooctadecine] | 251 | 848 | > 1000 | 259 | > 1000 | 68.4 | 177 |
| CCOc1ccc2c(n1)/C=C/c1n[nH]c3ccc(cc13)-c1cnn(C)c1O[C@@H](C)CN(C)C2 [Ex. 267, (10S,18E)-16-ethoxy-8,10,12-trimethyl-2,8,10,11,12,13-hexahydro-3,5-ethenodipyrazolo[3,4-j:4′,3′-n]pyrido[3,2-f][1,4]oxazacyclopentadecine] | 8.31 | 241 | 1230 | 5.42 | 769 | 117 | 107 |
| Cc1c2c(nn1CCO)CNC[C@H](C)Oc1c(cnn1C)-c1ccc3[nH]nc(c3c1)/C=C/2 [Example 49, 2-[(10S,17E)-8,10,16-trimethyl-2,8,10,11,12,13-hexahydro-15H-3,5-ethenotripyrazolo[3,4-f:3′,4′-j:4″,3″- n][1,4]oxazacyclopentadecin-15-yl]ethan-1-ol] | 126 | 862 | > 1000 | 84.4 | > 1000 | 617 | 1040 |
| Cc1c2c(nn1CCO)CN(C)C[C@H](C)Oc1c(cnn1C)-c1ccc3[nH]nc(c3c1)/C=C/2 [Example 60, 2-[(10S,17E)-8,10,12,16-tetramethyl-2,8,10,11,12,13-hexahydro-15H-3,5-ethenotripyrazolo[3,4-f:3′,4′-j:4″,3″- n][1,4]oxazacyclopentadecin-15-yl]ethan-1-ol] | 6.86 | 101 | 678 | 3.27 | 581 | 89.7 | 89.4 |
| Cc1nn(C)c2c1/C=C/c1n[nH]c3ccc(cc13)-c1cnn(C)c1OCCN(C)C(=O)CO2 [Example 63, (19E)-8,12,16,18-tetramethyl-2,11,12,16-tetrahydro-8H,10H-3,5-ethenotripyrazolo[3,4-h:3′,4′-l:4″,3″- p][1,7,4]dioxazacycloheptadecin-13(14H)-one] | 43.3 | 828 | > 1000 | 33.5 | 782 | 296 | 228 |

Results, then the compound that gave them:

| IC50 (EGFR L858R/T790M mutant) [nM] | IC50 (EGFR L858R mutant) [nM] | IC50 (EGFR (D770_N771insNPG)) [nM] | IC50 [1] [nM] | IC50 (EGFR WT) [nM] | IC50 (EGFR Δ746-750 mutant) [nM] | IC50 [2] [nM] | Compound |
| --- | --- | --- | --- | --- | --- | --- | --- |
| 153 | 1580 | > 1000 | 218 | > 1000 | 850 | 798 | COCc1nn(C)c2c1/C=C/c1n[nH]c3ccc(cc13)-c1cnn(C)c1OCCCO2 [Ex. 11, (17E)-16-(methoxymethyl)-8,14-dimethyl-2,11,12,14-tetrahydro-8H,10H-3,5-etheno[1,5]dioxacyclopentadecino[10,11-c:15,14-c′:6,7-c″]tripyrazole] |
| 13.1 | 96.6 | 362 | 22.5 | 290 | 29.3 | 44.5 | CCc1nn(CCO)c2c1/C=C/c1n[nH]c3ccc(cc13)-c1cnn(C)c1OCCCO2 [Ex. 23, 2-[(17E)-16-ethyl-8-methyl-2,8,11,12-tetrahydro-10H,14H-3,5-etheno[1,5]dioxacyclopentadecino[10,11-c:15,14-c′:6,7-c″]tripyrazol-14-yl]ethan-1-ol] |
| 282 | > 1000 | > 1000 | 60.4 | > 1000 | 971 | 577 | C[C@H]1CN(C)Cc2c(c(CN(C)C)nn2CCO)/C=C/c2n[nH]c3ccc(cc23)-c2cnn(C)c2O1 [Ex. 266, 2-{(10S,17E)-16-[(dimethylamino)methyl]-8,10,12-trimethyl-2,8,10,11,12,13-hexahydro-14H-3,5-ethenotripyrazolo[3,4-f:3′,4′-j:4″,3″-n][1,4]oxazacyclopentadecin-14-yl}ethan-1-ol] |
| 1.22 | 22.2 | 50 | 1.12 | 42.7 | 15 | 8.48 | Cc1nn(CCO)c2c1/C=C/c1n[nH]c3ccc(cc13)-c1cnn(C)c1CN(C)CCO2 [Example 56, 2-[(17E)-8,10,16-trimethyl-2,8,9,10,11,12-hexahydro-14H-3,5-ethenotripyrazolo[3,4-f:4′,3′-j:4″,3″- n][1,4]oxazacyclopentadecin-14-yl]ethan-1-ol] |
| 14.9 | 121 | 306 | 25.6 | 405 | 93 | 92.4 | CCc1nn(CCN2CC[C@H](O)C2)c2c1/C=C/c1n[nH]c3ccc(cc13)-c1cnn(C)c1OCCCO2 [Example 69, (3S)-1-{2-[(17E)-16-ethyl-8-methyl-2,8,11,12-tetrahydro-10H,14H-3,5-etheno[1,5]dioxacyclopentadecino[10,11-c:15,14-c′:6,7-c″]tripyrazol-14-yl]ethyl}pyrrolidin-3-ol] |
| 3.81 | 70.1 | 73.6 | 3.68 | 98.7 | 32.3 | 27.1 | Cn1ncc2c1OCCN1CC[C@@H](Oc3ccccc3/C=C/c3n[nH]c4ccc-2cc34)C1=O [Example 70, (10R,16E)-3-methyl-3,5,6,9,10,19-hexahydro-8H-20,22-etheno-7,10-methanodipyrazolo[3,4-i:4,3′-m][1,8,5]benzodioxazacyclooctadecin-25-one] |
| 57.1 | 526 | 951 | 67.7 | 1910 | 596 | 284 | Cc1c2c(nn1CCO)OCCOC(C)c1c(cnn1C)-c1ccc3[nH]nc(c3c1)/C=C/2 (stereo not drawn) [Example 79, 2-[(17E)-8,9,16-trimethyl-8,9,11,12-tetrahydro-3,5-etheno[1,4]dioxacyclopentadecino[11,10-c:15,14-c′:6,7-c″ ]tripyrazol-15(2H)-yl]ethan-1-ol] |
| 0.06 | 1.02 | 81.8 | 0.81 | 17.1 | 11.6 | 4.65 | Cc1c2c(nn1CCN1CCN(C)CC1)CN(C)C[C@H](C)Oc1c(cnn1C)-c1ccc3[nH]nc(c3c1)/C=C/2 [Example 90, (10S,17E)-8,10,12,16-tetramethyl-15-[2-(4-methylpiperazin-1-yl)ethyl]-2,10,11,12,13,15-hexahydro-8H-3,5-ethenotripyrazolo[3,4-f:3′,4′-j:4″,3″-n][1,4]oxazacyclopentadecine] |
| 400 | > 1000 | > 1000 | > 1000 | > 1000 | > 1000 | > 1000 | Cn1ncc2c1OCCCOc1nn3ccn(C)c(=O)c3c1/C=C/c1n[nH]c3ccc-2cc13 [Example 91, (20E)-8,18-dimethyl-2,8,11,12-tetrahydro-10H-3,5-ethenodipyrazolo[3″,4″:10′,11′;4′″,3′″:14′,15′][1,5]dioxacyclopentadecino[6′,7′:3,4]pyrazolo[1,5-a]pyrazin-19(18H)-one] |
| 0.41 | 4.1 | 6.34 | 3.26 | 14.5 | 7.95 | 6.65 | CN1CCN(Cc2ccc3c(c2)O[C@@H]2CCN(CCOc4c(cnn4C)-c4ccc5[nH]nc(c5c4)/C=C/3)C2=O)CC1 [Example 92, (10R,16E)-3-methyl-13-[(4-methylpiperazin-1-yl)methyl]-3,5,6,9,10,19-hexahydro-8H-20,22-etheno-7,10-methanodipyrazolo[3,4-i:4′,3′-m][1,8,5]benzodioxazacyclooctadecin-25-one] |

Source: patent US20250353864A1, “INDAZOLE CONTAINING MACROCYCLES AND THEIR USE” (BLOSSOMHILL THERAPEUTICS, INC., priority 2022, published 2025)
